Among the data in ChEMBL document CHEMBL1148545, “New metabolically stable fatty acid amide ligands of cannabinoid receptors: Synthesis and receptor affinity studies” (Bioorg Med Chem Lett, 2006) are Ki and IC50 values, retold here.

Structures are written as SMILES.

For orientation: Ki means a measure of affinity in units of concentration, obtained from inhibition or displacement. As usually defined, the IC50 is the concentration at which inhibition is half-maximal. Read a low IC50 as inhibition by little substance.

For test [1], the target named is T1, Cannabinoid receptor 1 (Homo sapiens, UniProt P21554). Briefly: Displacement of [3H]CP-55940 from human recombinant CB1 receptor.
In test [2] the target is Cannabinoid receptor 2 (Homo sapiens, UniProt P34972). The experiment in a line: Displacement of [3H]CP-55940 from human recombinant CB2 receptor. Background: In a radioligand displacement assay an active substance lowers the binding of a labelled ligand.
Test [3] addresses T1, Cannabinoid receptor 1. The experiment in a line: Displacement of [3H]CP-55940 from human recombinant CB1 receptor in presence of hydrolase inhibitor PMSF.
The target of test [4] is T2, Fatty-acid amide hydrolase 1 (Rattus norvegicus, UniProt P97612).
T2 sequence (P97612 whole entry): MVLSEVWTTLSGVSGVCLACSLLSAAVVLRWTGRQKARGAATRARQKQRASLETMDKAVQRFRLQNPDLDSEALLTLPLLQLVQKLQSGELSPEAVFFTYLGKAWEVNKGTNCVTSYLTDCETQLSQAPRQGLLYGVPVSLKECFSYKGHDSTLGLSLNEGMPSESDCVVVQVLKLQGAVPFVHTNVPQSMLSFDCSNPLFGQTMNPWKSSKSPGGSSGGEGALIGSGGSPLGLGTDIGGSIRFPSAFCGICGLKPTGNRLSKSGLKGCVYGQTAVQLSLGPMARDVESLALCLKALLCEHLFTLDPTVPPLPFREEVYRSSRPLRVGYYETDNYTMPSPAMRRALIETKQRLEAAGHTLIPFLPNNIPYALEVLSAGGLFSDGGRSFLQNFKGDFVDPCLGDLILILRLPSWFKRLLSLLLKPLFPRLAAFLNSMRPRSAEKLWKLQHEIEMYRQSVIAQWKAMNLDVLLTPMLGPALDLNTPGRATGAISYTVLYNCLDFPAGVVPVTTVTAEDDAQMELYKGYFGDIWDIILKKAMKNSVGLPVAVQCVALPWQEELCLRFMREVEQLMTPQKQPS
Briefly: Inhibitory activity against rat brain FAAH by [14C]anandamide hydrolysis.

Sequence of Cannabinoid receptor 2 (P34972 whole entry): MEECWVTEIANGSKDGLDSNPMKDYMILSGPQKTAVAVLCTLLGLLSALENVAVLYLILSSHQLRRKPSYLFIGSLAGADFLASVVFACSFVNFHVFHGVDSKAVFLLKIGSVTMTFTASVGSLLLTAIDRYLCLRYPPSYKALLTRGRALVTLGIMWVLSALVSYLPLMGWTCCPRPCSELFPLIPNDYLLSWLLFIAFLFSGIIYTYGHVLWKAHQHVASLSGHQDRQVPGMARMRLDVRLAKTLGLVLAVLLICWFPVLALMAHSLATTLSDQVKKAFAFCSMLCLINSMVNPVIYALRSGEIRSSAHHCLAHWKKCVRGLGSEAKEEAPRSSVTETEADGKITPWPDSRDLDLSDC
T1 sequence (P21554 whole entry): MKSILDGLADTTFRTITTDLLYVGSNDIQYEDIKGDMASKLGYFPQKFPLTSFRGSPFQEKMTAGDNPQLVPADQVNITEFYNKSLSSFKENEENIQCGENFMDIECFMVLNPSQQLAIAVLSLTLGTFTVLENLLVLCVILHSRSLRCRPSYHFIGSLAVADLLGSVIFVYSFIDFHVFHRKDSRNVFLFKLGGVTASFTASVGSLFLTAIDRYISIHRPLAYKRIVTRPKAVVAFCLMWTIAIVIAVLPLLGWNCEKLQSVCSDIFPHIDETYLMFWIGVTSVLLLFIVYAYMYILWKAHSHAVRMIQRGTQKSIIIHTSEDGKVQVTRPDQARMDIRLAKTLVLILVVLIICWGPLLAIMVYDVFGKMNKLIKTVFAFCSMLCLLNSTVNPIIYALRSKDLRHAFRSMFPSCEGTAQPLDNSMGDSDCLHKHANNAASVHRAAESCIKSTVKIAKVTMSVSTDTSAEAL

With `CCCCCCCC/C=C/C(=O)NCCc1ccc(OC)cc1OC`, the Ki in test [1] and in test [2] was more than 10 µM each time.

For the molecule `CCCCCCCC/C=C/C(=O)NCc1ccc(OC)cc1`, the Ki in test [1] and in test [2] was more than 10 µM each time.

In the case of `CCCCCCCC/C=C\CCCCCCCC(=O)NCCc1ccc(OC)cc1`, the Ki is 0.3 µM in test [3], 0.4 µM in test [1] and more than 10 µM in test [2]. Moreover, the IC50 in test [4] was more than 25 µM.

Take `CCCCCCCC/C=C\CCCCCCCCCCCC(=O)NCCc1cc(OC)cc(OC)c1`: the Ki was 5.4 µM in test [1] and more than 10 µM in test [2].

Take `C=CCCCCCCCCC(=O)Nc1ccc(N2CCOCC2)cc1`: the Ki in test [1] and in test [2] was more than 10 µM each time.

With `CCCCCCCC/C=C/C(=O)NCCc1cc(OC)cc(OC)c1`, the Ki in test [1] came out at 2.8 µM; in test [2] it was 5.2 µM.

Take `CCCCC/C=C\C/C=C\C/C=C\C/C=C\CCCC(=O)N1CCN(c2ccc(Cl)cc2)CC1`: the Ki in test [1] was 0.6 µM; in test [2] it was more than 10 µM.

For `CCCCC/C=C\C/C=C\C/C=C\C/C=C\CCCC(=O)NCCc1ccc(OC)cc1OC`, the Ki came out at 0.5 µM in test [1] and 4 µM in test [2].

As to `CCCCCCCC/C=C\CCCCCCCC(=O)Nc1ccc(N2CCOCC2)cc1`, the Ki in test [1] and in test [2] was more than 10 µM in each case.

As to `CCCCC/C=C\C/C=C\C/C=C\C/C=C\CCCC(=O)NCc1ccc(OC)cc1`, the Ki in test [1] turned out to be 0.6 µM; in test [2], 4.5 µM.

Regarding `CCCCC/C=C\C/C=C\C/C=C\C/C=C\CCCC(=O)Nc1ccc(OC)cc1`, the Ki amounted to 0.5 µM in test [1] and 4 µM in test [2].

`CCCCC/C=C\C/C=C\C/C=C\C/C=C\CCCC(=O)NCCc1ccc(OC)cc1`: the Ki in test [1] is 2.4 µM; in test [2], more than 10 µM.

As for `CCCCCCCC/C=C\CCCCCCCC(=O)NCCc1cc(OC)cc(OC)c1`, the Ki in test [3] was 1 µM; in test [1] it was 1.3 µM; in test [2], more than 10 µM. Also, in test [4], the IC50 is more than 25 µM.

In the case of `CCCCCCCC/C=C\CCCCCCCC(=O)Nc1ccc(OC)cc1`, the Ki was 1.5 µM in test [3], 1.6 µM in test [1] and more than 10 µM in test [2]. Further, in test [4], the IC50 is more than 25 µM.

As for `CCCCCCCC/C=C\CCCCCCCCCCCC(=O)NCCc1ccc(OC)cc1OC`, the inhibition constant (Ki) in test [1] was 3.7 µM; in test [2], more than 10 µM.

On to `CCCCC/C=C\C/C=C\C/C=C\C/C=C\CCCC(=O)NCCc1cc(OC)cc(OC)c1`, for which the Ki in test [1] and in test [2] was more than 10 µM in each case.

Consider `CCCCC/C=C\C/C=C\C/C=C\C/C=C\CCCC(=O)Nc1ccc(N2CCOCC2)cc1`, for which the inhibitory constant (Ki) in test [3] turned out to be 0.15 µM; in test [1], 0.15 µM; in test [2] it was 4.3 µM. Further, in test [4], the 50% inhibitory concentration (IC50) was more than 25 µM.

Consider `CCCCC/C=C\C/C=C\C/C=C\C/C=C\CCCC(=O)N1CCN(c2ccc(F)cc2)CC1`, for which the results for the Ki in test [3], in test [1] and in test [2] were 0.3 µM, 0.3 µM and 5.1 µM, respectively. The same molecule displayed a half-maximal inhibitory concentration (IC50) in test [4] of more than 25 µM.

For `CCCCCCCC/C=C/C(=O)Nc1ccc(OC)cc1`, in test [2], the Ki was 2.5 µM.

Regarding `CCCCCCCC/C=C\CCCCCCCCCCCC(=O)NCc1ccc(OC)cc1`, the Ki in test [1] and in test [2] was more than 10 µM throughout.

For `CCCCCCCC/C=C\CCCCCCCCCCCC(=O)Nc1ccc(OC)cc1`, the Ki in test [1] and in test [2] was more than 10 µM throughout.

Turning to `CCCCC/C=C\C/C=C\C/C=C\C/C=C\CCCC(=O)NCc1cc(OC)ccc1OC`, the Ki is 0.5 µM in test [1] and 4.1 µM in test [2].

For the molecule `C=CCCCCCCCCC(=O)NCCc1ccc(OC)cc1OC`, the Ki in test [1] and in test [2] was more than 10 µM in each case.

Take `CCCCC/C=C\C/C=C\C/C=C\C/C=C\CCCC(=O)NCc1ccc(OC)cc1OC`: the Ki in test [3] is 0.2 µM; in test [1], 0.2 µM; in test [2], 4 µM. For the same molecule, in test [4], the IC50 is more than 25 µM.

For `CCCCCCCC/C=C\CCCCCCCCCCCC(=O)NCCc1ccc(OC)cc1`, the Ki in test [1] and in test [2] was more than 10 µM throughout.

Take `CCCCCCCC/C=C/C(=O)NCCc1ccc(OC)cc1`: the Ki in test [2] worked out at 5.1 µM.

For `CCCCC/C=C\C/C=C\C/C=C\C/C=C\CCCC(=O)Nc1ccc(O)cc1`, the Ki in test [1] is 1.76 µM.

Take `C=CCCCCCCCCC(=O)NCCc1cc(OC)cc(OC)c1`: the Ki in test [1] and in test [2] was more than 10 µM throughout.

As for `C=CCCCCCCCCC(=O)Nc1ccc(OC)cc1`, the Ki in test [1] and in test [2] was more than 10 µM in each case.

As for `CCCCCCCC/C=C\CCCCCCCCCCCC(=O)Nc1ccc(N2CCOCC2)cc1`, the Ki was 6.4 µM in test [1] and more than 10 µM in test [2].

Take `CCCCC/C=C\C/C=C\C/C=C\C/C=C\CCCC(=O)N1CCN(c2ccc(C)c(C)c2)CC1`: the Ki in test [1] was 0.4 µM; in test [2], 4.2 µM.

Consider `CCCCCCCC/C=C\CCCCCCCC(=O)NCCc1ccc(OC)cc1OC`, for which the Ki in test [3] is 0.6 µM; in test [1], 0.8 µM; in test [2], more than 10 µM. For the same molecule, in test [4], the IC50 was more than 25 µM.

`C=CCCCCCCCCC(=O)NCc1ccc(OC)cc1`: the Ki in test [1] and in test [2] was more than 10 µM throughout.

With `C=CCCCCCCCCC(=O)NCCc1ccc(OC)cc1`, the Ki in test [1] and in test [2] was more than 10 µM throughout.

With `CCCCCCCC/C=C/C(=O)Nc1ccc(N2CCOCC2)cc1`, the Ki in test [1] and in test [2] was more than 10 µM in each case.

Regarding `CCCCCCCC/C=C\CCCCCCCC(=O)NCc1ccc(OC)cc1`, the Ki in test [3] was 0.6 µM; in test [1], 0.5 µM; in test [2] it was more than 10 µM. In test [4], this molecule came in with an IC50 of more than 25 µM.
